Measured values published in PubChem BioAssay AID2060902 (Molecular Pharmacology Branch, DTP, NCI, 2025).

System: 485368-065-R3-J5-PDC spheroids with HUVEC/MSC, viability
Experiment: Anticancer human tumor 485368-065-R3-J5-PDC patient-derived pancreatic carcinoma cell line growth inhibition [RAS]
Details: for IC50: curve of first compound; for viability, T/C: stronger effect = lower value
Source text: RAS pathway inhibitors in Combinations in Complex Spheroids
A high-throughput screen of multi-cell type tumor spheroids was designed to identify active combinations of RAS pathway inhibitors and targeted small molecules. Complex spheroids include a stromal component modeled by human endothelial cells (HUVEC) and fibroblasts modeled by human mesenchymal stem cells (MSCs). The concentration ranges selected for each drug and investigational agent were based upon clinically achievable concentrations if the clinical Cmax of the agent was known.
Compounds. The drugs and investigational agents: abemaciclib (NSC768073), cobimetinib (NSC768068), divarasib (GDC6063, NSC841802), docetaxel (NSC628503), GDC-1971 (RLY-1971, NSC841576), gemcitabine (NSC613327), inavolisib (NSC800729), ipatasertib (NSC767898), KB-0742 (NSC834161), MRTX-1133 (NSC836407), osimertinib (NSC779217), RMC-4630 (NSC839698), RMC-6236 (NSC851965), RMC-6291 (NSC852671), Ro-3306 (NSC812927), sapanisertib (NSC764658), SN-38 (NSC673596), staurosporine (NSC755774), SY5609 (NSC837396), and tovorafenib (DAY101, NSC766906), were obtained from the National Cancer Institute (NCI) Developmental Therapeutics Program Chemical Repository. The FDA-approved anticancer drug set is available from the NCI Developmental Therapeutics Program. […] The stock solutions were prepared in dimethyl sulfoxide (DMSO, Sigma-Aldrich, St. Louis, MO, cat. D2650) at 800-fold the tested concentration and stored at -70 degrees C prior to their use. All drugs and investigational agents were tested over a range starting from a high concentration at or near the clinical Cmax and decreasing in half-log increments. If the clinical Cmax for an agent had not been determined, the highest concentration tested was 10 microM.
Cell Culture. All cells were maintained in an incubator at 37 degrees C and 5% CO2 with 95% humidity. The PDC lines were cultured according to standard operating procedures established by the NCI PDMR. All PDCs were thawed and cultured in Matrigel-coated flasks prepared with a working solution of 1X Ham's F-12 nutrient mix, without supplementation (Invitrogen, Waltham, MA, cat. 11765054), 100 U/mL penicillin-streptomycin (Invitrogen, cat. 15140122), and 2.5% Matrigel (Corning Inc., Corning, NY, cat. 354248) for the first three passages. The 362531-283-R-J2-PDC and 782815-120-R-J1-PDC lines were cultured in 6C/Colon 1B media, which includes advanced DMEM/F-12 (Thermo Fisher Scientific, cat. 12634028), 10 mM HEPES (Thermo Fisher Scientific, cat. 15630080), 1X GlutaMAX supplement (Thermo Fisher Scientific, cat. 35050061), 0.1 mg/mL primocin (InvivoGen, San Diego, CA, cat. ant-pm-2), 10% defined fetal bovine serum, heat inactivated (HyClone Laboratories Inc., Logan, UT, cat. SH30070.03HI), 50% L-WRN conditioned media (ATCC, cat. CRL-3276), 1.25 mM N-Acetyl-L-cysteine (Sigma-Aldrich, cat. A9165), 10 mM nicotinamide (Sigma-Aldrich, cat. N0636), 1X B-27 supplement (Thermo Fisher Scientific, cat. 17504044), 1X N-2 supplement (Thermo Fisher Scientific, cat. 17502048), 50 ng/mL human EGF (Thermo Fisher Scientific, cat. PHG0311), and 10 microM Y-27632 dihydrochloride (Tocris Bioscience, cat. 1254). The K12877-001-R-J1-PDC line was cultured in 6I media, which includes all 6C/Colon 1B media plus 10 ng/mL human FGF-10 (PeproTech, cat. 100-26), 1 ng/mL human FGF-2 (PeproTech, cat. 100-18B), 1 µM prostaglandin E2 (Tocris Bioscience, cat. 2296), […] hydrocortisone (Sigma-Aldrich, cat. H4001), and […] bovine insulin (Sigma-Aldrich, cat. I6634). The K86415-001-R-J1-PDC line was cultured in 6D media, which includes all 6C/Colon 1B media components minus the L-WRN conditioned media. The 485176-168-R4-J1-PDC was cultured in PANC media, which includes all 6C/Colon 1B media plus 100 ng/mL human FGF-10 (PeproTech, cat. 100-26), 500 nM SB-431542 (Selleckchem, cat. S1067), and 10 nM gastrin (Tocris Bioscience, cat. 3006). […]

[1] = second compound 0.0316 µM, first compound 0.0316 µM
[2] = second compound 0.0316 µM, first compound 0.1 µM
[3] = second compound 0.1 µM, first compound 0.0316 µM
[4] = second compound 0.1 µM, first compound 0.1 µM
[5] = second compound 0.316 µM, first compound 0.0316 µM
[6] = second compound 0.316 µM, first compound 0.1 µM
[7] = second compound 1 µM, first compound 0.0316 µM
[8] = second compound 1 µM, first compound 0.1 µM
[9] = second compound 3.16 µM, first compound 0.0316 µM
[10] = second compound 3.16 µM, first compound 0.1 µM
[11] = second compound 10 µM, first compound 0.0316 µM
[12] = second compound 10 µM, first compound 0.1 µM
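Also: spheroids exposed to agents for seven days before readout.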

## CC(C)NCC(C(=O)N1CCN(c2ncnc3c2C(C)CC3O)CC1)c1ccc(Cl)cc1 (centres undefined) + C#Cc1c(F)ccc2cc(O)cc(-c3ncc4c(N5CC6CCC(C5)N6)nc(OCC56CCCN5CC(F)C6)nc4c3F)c12
Second compound 0.0316 µM
  IC50: > 10000 nM
Second compound 0.1 µM
  IC50: > 10000 nM
Second compound 0.316 µM
  IC50: > 10000 nM
Second compound 1 µM
  IC50: 8240 nM
Second compound 3.16 µM
  IC50: 4340 nM
Second compound 10 µM
  IC50: < 31.6 nM
[1]
  viability, T/C: 116%
[2]
  viability, T/C: 98.7%
Second compound 0.0316 µM, first compound 0.316 µM
  viability, T/C: 89.3%
Second compound 0.0316 µM, first compound 1 µM
  viability, T/C: 93.5%
Second compound 0.0316 µM, first compound 3.16 µM
  viability, T/C: 77.1%
Second compound 0.0316 µM, first compound 10 µM
  viability, T/C: 57.8%
[3]
  viability, T/C: 101%
[4]
  viability, T/C: 88.8%
Second compound 0.1 µM, first compound 0.316 µM
  viability, T/C: 90.3%
Second compound 0.1 µM, first compound 1 µM
  viability, T/C: 83.3%
Second compound 0.1 µM, first compound 3.16 µM
  viability, T/C: 77.2%
Second compound 0.1 µM, first compound 10 µM
  viability, T/C: 57.9%
[5]
  viability, T/C: 99%
[6]
  viability, T/C: 101%
Second compound 0.316 µM, first compound 0.316 µM
  viability, T/C: 93.9%
Second compound 0.316 µM, first compound 1 µM
  viability, T/C: 87.9%
Second compound 0.316 µM, first compound 3.16 µM
  viability, T/C: 71.2%
Second compound 0.316 µM, first compound 10 µM
  viability, T/C: 55%
[7]
  viability, T/C: 104%
[8]
  viability, T/C: 106%
Second compound 1 µM, first compound 0.316 µM
  viability, T/C: 93.5%
Second compound 1 µM, first compound 1 µM
  viability, T/C: 74.9%
Second compound 1 µM, first compound 3.16 µM
  viability, T/C: 61.9%
Second compound 1 µM, first compound 10 µM
  viability, T/C: 47%
[9]
  viability, T/C: 73.7%
[10]
  viability, T/C: 74%
Second compound 3.16 µM, first compound 0.316 µM
  viability, T/C: 75.2%
Second compound 3.16 µM, first compound 1 µM
  viability, T/C: 70.8%
Second compound 3.16 µM, first compound 3.16 µM
  viability, T/C: 54.2%
Second compound 3.16 µM, first compound 10 µM
  viability, T/C: 38.9%
[11]
  viability, T/C: 44.1%
[12]
  viability, T/C: 39.4%
Second compound 10 µM, first compound 0.316 µM
  viability, T/C: 40.3%
Second compound 10 µM, first compound 1 µM
  viability, T/C: 35.4%
Second compound 10 µM, first compound 3.16 µM
  viability, T/C: 35.3%
Second compound 10 µM, first compound 10 µM
  viability, T/C: 26.9%

## CC(C)n1nc(-c2ccc3oc(N)nc3c2)c2c(N)ncnc21 + C#Cc1c(F)ccc2cc(O)cc(-c3ncc4c(N5CC6CCC(C5)N6)nc(OCC56CCCN5CC(F)C6)nc4c3F)c12
Second compound 0.0316 µM
  IC50: 19.2 nM
Second compound 0.1 µM
  IC50: 18.6 nM
Second compound 0.316 µM
  IC50: 16.8 nM
Second compound 1 µM
  IC50: 17.3 nM
Second compound 3.16 µM
  IC50: 11.5 nM
Second compound 10 µM
  IC50: < 0.316 nM
Second compound 0.0316 µM, first compound 0.000316 µM
  viability, T/C: 96.7%
Second compound 0.0316 µM, first compound 0.001 µM
  viability, T/C: 97%
Second compound 0.0316 µM, first compound 0.00316 µM
  viability, T/C: 76.4%
Second compound 0.0316 µM, first compound 0.01 µM
  viability, T/C: 65.5%
[1]
  viability, T/C: 39.3%
[2]
  viability, T/C: 18.7%
Second compound 0.1 µM, first compound 0.000316 µM
  viability, T/C: 97.3%
Second compound 0.1 µM, first compound 0.001 µM
  viability, T/C: 90.6%
Second compound 0.1 µM, first compound 0.00316 µM
  viability, T/C: 88.9%
Second compound 0.1 µM, first compound 0.01 µM
  viability, T/C: 65.7%
[3]
  viability, T/C: 36.4%
[4]
  viability, T/C: 18.7%
Second compound 0.316 µM, first compound 0.000316 µM
  viability, T/C: 99.8%
Second compound 0.316 µM, first compound 0.001 µM
  viability, T/C: 99.4%
Second compound 0.316 µM, first compound 0.00316 µM
  viability, T/C: 83.6%
Second compound 0.316 µM, first compound 0.01 µM
  viability, T/C: 61.8%
[5]
  viability, T/C: 36.1%
[6]
  viability, T/C: 18.7%
Second compound 1 µM, first compound 0.000316 µM
  viability, T/C: 101%
Second compound 1 µM, first compound 0.001 µM
  viability, T/C: 96.8%
Second compound 1 µM, first compound 0.00316 µM
  viability, T/C: 82.8%
Second compound 1 µM, first compound 0.01 µM
  viability, T/C: 63.6%
[7]
  viability, T/C: 35.7%
[8]
  viability, T/C: 17.8%
Second compound 3.16 µM, first compound 0.000316 µM
  viability, T/C: 71.3%
Second compound 3.16 µM, first compound 0.001 µM
  viability, T/C: 76.5%
Second compound 3.16 µM, first compound 0.00316 µM
  viability, T/C: 67.2%
Second compound 3.16 µM, first compound 0.01 µM
  viability, T/C: 52.9%
[9]
  viability, T/C: 28.9%
[10]
  viability, T/C: 14.8%
Second compound 10 µM, first compound 0.000316 µM
  viability, T/C: 47.3%
Second compound 10 µM, first compound 0.001 µM
  viability, T/C: 36%
Second compound 10 µM, first compound 0.00316 µM
  viability, T/C: 32.2%
Second compound 10 µM, first compound 0.01 µM
  viability, T/C: 31.1%
[11]
  viability, T/C: 18.1%
[12]
  viability, T/C: 13.1%
